Assay results reported in patent publication US20240150377A1, “MODULATORS OF CYSTIC FIBROSIS TRANSMEMBRANE CONDUCTANCE REGULATOR” (VERTEX PHARMACEUTICALS INCORPORATED, priority 2020, published 2024).
Read-outs that look alike come from different tables or passages of the source.

Target: CFTR (Homo sapiens, UniProt P13569)
Assay: Membrane potential dye, Enteroid Assay B
Format: cell-based
Details: for EC50: read-out: Ent. B EC50; for Ent. B Max Activity: chloride transport as % of triple combination control (Enteroid Assay B)
Summary of the method: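 Human intestinal enteroids were treated with compound in maintenance medium for 18-24 h at 37° C, then loaded with methyl oxonol membrane-potential dye (25 min, room temperature). Chloride transport was triggered in chloride-free buffer with 10 μM forskolin, 100 μM IBMX and 300 nM Compound III, fluorescence read 15 min; expressed as % of triple-combination control.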

[1] = Table 8, human enteroid cells, 18-24 hours, acute 10 μM forskolin and 300 nM ivacaftor
[2] = Table 7, human enteroid cells, 18-24 hours, acute 10 μM forskolin and 300 nM ivacaftor

Chain of CFTR (P13569 with tags, fused parts or gaps DEL508-508): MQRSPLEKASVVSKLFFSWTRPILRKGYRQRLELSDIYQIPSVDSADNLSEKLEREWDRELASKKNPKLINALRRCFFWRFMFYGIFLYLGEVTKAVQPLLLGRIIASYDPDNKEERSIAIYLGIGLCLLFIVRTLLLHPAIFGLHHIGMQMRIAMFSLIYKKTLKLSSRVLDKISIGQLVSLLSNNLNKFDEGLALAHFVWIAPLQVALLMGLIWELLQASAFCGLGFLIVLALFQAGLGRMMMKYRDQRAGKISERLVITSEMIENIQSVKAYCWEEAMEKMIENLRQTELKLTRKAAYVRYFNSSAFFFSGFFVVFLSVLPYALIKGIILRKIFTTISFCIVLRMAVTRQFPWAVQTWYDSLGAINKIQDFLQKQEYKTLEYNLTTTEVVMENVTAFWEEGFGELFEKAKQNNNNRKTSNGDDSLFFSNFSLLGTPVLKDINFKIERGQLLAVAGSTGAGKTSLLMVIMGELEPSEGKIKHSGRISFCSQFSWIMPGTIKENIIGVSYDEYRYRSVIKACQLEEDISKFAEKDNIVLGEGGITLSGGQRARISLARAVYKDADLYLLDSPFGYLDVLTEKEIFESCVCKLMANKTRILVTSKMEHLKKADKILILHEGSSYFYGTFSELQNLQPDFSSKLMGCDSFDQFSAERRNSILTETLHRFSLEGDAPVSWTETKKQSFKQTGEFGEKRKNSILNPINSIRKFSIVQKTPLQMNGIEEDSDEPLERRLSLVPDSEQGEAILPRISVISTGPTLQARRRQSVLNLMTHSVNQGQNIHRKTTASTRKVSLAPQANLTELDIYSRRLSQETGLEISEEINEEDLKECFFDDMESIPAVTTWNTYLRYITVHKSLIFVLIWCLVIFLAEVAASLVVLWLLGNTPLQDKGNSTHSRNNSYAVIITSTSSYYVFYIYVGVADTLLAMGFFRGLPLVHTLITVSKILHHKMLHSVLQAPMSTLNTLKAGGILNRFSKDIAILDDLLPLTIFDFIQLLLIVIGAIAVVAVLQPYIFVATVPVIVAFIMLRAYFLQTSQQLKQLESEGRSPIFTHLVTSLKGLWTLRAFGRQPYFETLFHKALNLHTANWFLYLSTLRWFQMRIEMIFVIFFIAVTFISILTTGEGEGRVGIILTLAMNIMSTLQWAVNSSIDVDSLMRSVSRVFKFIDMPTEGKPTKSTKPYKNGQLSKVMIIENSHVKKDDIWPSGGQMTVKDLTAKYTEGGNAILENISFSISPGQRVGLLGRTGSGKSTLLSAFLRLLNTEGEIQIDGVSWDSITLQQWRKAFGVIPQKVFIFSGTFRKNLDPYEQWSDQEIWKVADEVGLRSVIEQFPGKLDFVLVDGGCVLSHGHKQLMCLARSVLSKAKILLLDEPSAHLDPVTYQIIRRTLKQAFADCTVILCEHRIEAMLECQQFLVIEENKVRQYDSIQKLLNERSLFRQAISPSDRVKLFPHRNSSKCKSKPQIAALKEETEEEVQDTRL

| Ent. B Max Activity (%) (Table 9) | EC50 (Table 9) [nM] | Ent. B Max Activity (Table 8) | EC50 [1] [nM] | SMILES | further results |
| --- | --- | --- | --- | --- | --- |
| +++ (+++ is >600%) | < 1000 |  |  | Cc1cccc(C)c1-c1cc2nc(n1)NS(=O)(=O)c1cccc(c1)C(=O)N(Cc1ncccc1NC(=O)OC(C)C)[C@H](CC(C)(C)C)CO2 [Compound 392] |  |
| +++ (+++ is >600%) | < 1000 |  |  | Cc1cccc(C)c1-c1cc2nc(n1)NS(=O)(=O)c1cccc(c1)C(=O)N(CCC1CCOCC1)[C@@H]1CN(C3CC4(CCCC4)C3)C[C@H]1O2 [Compound 1191, (3R,7R)-19-(2,6-Dimethylphenyl)-8-[2-(oxan-4-yl)ethyl]-5-{spiro[3.4]octan-2-yl}-2-oxa-15λ^6-thia-5,8,16,18,21-pentaazatetracyclo[15.3.1.110,14.03,7]docosa-1(20),10(22),11,13,17(21),18-hexaene-9,15,15-trione] |  |
|  |  | +++ (+++ is >60%) | < 1000 | Cc1cccc(C)c1-c1cc2nc(n1)NS(=O)(=O)c1cccc(c1)C(=O)N(CC1CC(C)(O)C1)[C@H](CC(C)(C)C)CO2 (stereo partly drawn) [Compound 664] |  |
|  |  |  |  | Cc1cccc(C)c1-c1cc2nc(n1)NS(=O)(=O)c1cccc(c1)C(=O)N(CCC(C)(C)C#N)[C@H](CC(C)C)CO2 [Compound 1105] | Ent. B Max Activity (Table 7): +++ (+++ is >60%); EC50 [2]: < 1000 nM |
| +++ (+++ is >600%) | < 1000 |  |  | Cc1cccc(C)c1-c1cc2nc(n1)NS(=O)(=O)c1cccc(c1)C(=O)N(CCc1ccc(C(C)(C)O)cc1)[C@H](CC(C)(C)C)CO2 [Compound 108, (11R)-6-(2,6-Dimethylphenyl)-11-(2,2-dimethylpropyl)-12-[2-[4-(1-hydroxy-1-methyl-ethyl)phenyl]ethyl]-2,2-dioxo-9-oxa-2λ^6-thia-3,5,12,19-tetrazatricyclo[12.3.1.14,8]nonadeca-1(18),4(19),5,7,14,16-hexaen-13-one] |  |
|  |  | +++ (+++ is >60%) | < 1000 | COC(=O)Nc1cccc(CN2C(=O)c3cccc(c3)S(=O)(=O)Nc3nc(cc(-c4c(C)cccc4C)n3)OC[C@H]2CC(C)(C)C)c1 [Compound 506] |  |
|  |  | ++ (++ is 30-60%) | < 1000 | CNC(=O)c1ccc(CCN2C(=O)c3cccc(c3)S(=O)(=O)Nc3nc(cc(-c4c(C)cccc4C)n3)OC[C@H]2CC(C)(C)C)cc1 [Compound 395] |  |
|  |  | +++ (+++ is >60%) | < 1000 | Cc1cccc(C)c1-c1cc2nc(n1)NS(=O)(=O)c1cccc(c1)C(=O)N(Cc1ccc(C(=O)N(C)C)cn1)[C@H](CC(C)(C)C)CO2 [Compound 1110] |  |
| +++ (+++ is >600%) | < 1000 |  |  | Cc1cccc(C)c1-c1cc2nc(n1)NS(=O)(=O)c1cccc(c1)C(=O)N(Cc1ccc(N)nc1)[C@H](CC(C)(C)C)CO2 [Compound 387] |  |
|  |  | +++ (+++ is >60%) | < 1000 | Cc1cccc(C)c1-c1cc2nc(n1)NS(=O)(=O)c1cccc(n1)C(=O)N(Cc1ccncn1)[C@H](CC(C)(C)C)CO2 [Compound 1091] |  |
|  |  | +++ (+++ is >60%) | < 1000 | COCCCN1C(=O)c2cccc(c2)S(=O)(=O)Nc2nc(cc(-c3c(C)cccc3C)n2)OC[C@H]1CC(C)C [Compound 980] |  |
|  |  |  |  | COC(=O)N(C)CCN1C(=O)c2cccc(c2)S(=O)(=O)Nc2nc(cc(-c3c(C)cccc3C)n2)OC[C@H]1CC(C)C [Compound 410] | Ent. B Max Activity (Table 7): +++ (+++ is >60%); EC50 [2]: < 1000 nM |
| +++ (+++ is >600%) |  |  |  | Cc1cccc(C)c1-c1cc2nc(n1)NS(=O)(=O)c1cccc(c1)C(=O)N(Cc1ccc(C3CNCN3C)cc1)[C@H](CC(C)(C)C)CO2 (stereo partly drawn) [Compound 316] |  |
|  |  | ++ (++ is 30-60%) | < 1000 | Cc1cccc(C)c1-c1cc2nc(n1)NS(=O)(=O)c1cc(nn1C)C(=O)N(Cc1ncccn1)[C@H](CC(C)(C)C)CO2 [Compound 70, (10R)-15-(2,6-Dimethylphenyl)-10-(2,2-dimethylpropyl)-5-methyl-3,3-dioxo-9-(pyrimidin-2-ylmethyl)-12-oxa-3λ^6-thia-2,5,6,9,16,17-hexazatricyclo[11.3.1.14,7]octadeca-1(17),4(18),6,13,15-pentaen-8-one] |  |
|  |  |  |  | COC(=O)NCCCN1C(=O)c2cccc(c2)S(=O)(=O)Nc2nc(cc(-c3c(C)cccc3C)n2)OC[C@H]1CC(C)C [Compound 409] | Ent. B Max Activity (Table 7): +++ (+++ is >60%); EC50 [2]: < 1000 nM |
|  |  | + (+ is <30%) |  | Cc1cccc(C)c1-c1cc2nc(n1)NS(=O)(=O)c1cccc(c1)C(=O)N(CCCC(C)(C)O)[C@H](CCC(C)(C)O)CO2 [Compound 660] |  |
|  |  | ++ (++ is 30-60%) | < 1000 | Cc1ncc(CN2C(=O)c3cc(nn3C)S(=O)(=O)Nc3nc(cc(-c4c(C)cccc4C)n3)OC[C@H]2CC(C)(C)C)cn1 [Compound 925] |  |
| + (+ is <300%) | 3000 to 30000 |  |  | Cc1cccc(C)c1-c1cc2nc(n1)NS(=O)(=O)c1cccc(c1)C(=O)N(CC1CN(C(=O)CO)C1)[C@H](CC(C)(C)C)CO2 [Compound 319] |  |

| Ent. B Max Activity (%) (Table 9) | EC50 (Table 9) [nM] | Ent. B Max Activity (Table 8) | EC50 [1] [nM] | SMILES | further results |
| --- | --- | --- | --- | --- | --- |
|  |  | +++ (+++ is >60%) | < 1000 | Cc1cccc(C)c1-c1cc2nc(n1)NS(=O)(=O)c1cccc(c1)C(=O)N(C)CC(c1ccc(CC3(C(F)(F)F)CC3)cn1)O2 (single isomer, unassigned) [Compound 104, 6-(2,6-dimethylphenyl)-12-methyl-10-(5-{[1-(trifluoromethyl)cyclopropyl]methyl}pyridin-2-yl)-9-oxa-2λ^6-thia-3,5,12,19-tetraazatricyclo[12.3.1.14,8]nonadeca-1(17),4(19),5,7,14(18),15-hexaene-2,2,13-trione] |  |
|  |  | +++ (+++ is >60%) | < 1000 | Cc1cccc(C)c1-c1cc2nc(n1)NS(=O)(=O)c1cccc(c1)C(=O)N(Cc1ccc(C(C)(C)O)cc1)[C@H](CC(C)(C)C)CO2 [Compound 1094] |  |
| +++ (+++ is >600%) | < 1000 |  |  | CC(=O)Nc1cccnc1CN1C(=O)c2cccc(c2)S(=O)(=O)Nc2nc(cc(-c3c(C)cccc3C)n2)OC[C@H]1CC(C)(C)C [Compound 393] |  |
| +++ (+++ is >600%) | < 1000 |  |  | Cc1cccc(C)c1-c1cc2nc(n1)NS(=O)(=O)c1cccc(c1)C(=O)N(Cc1ncccc1N1CCOCC1)[C@H](CC(C)(C)C)CO2 [Compound 386] |  |
|  |  | +++ (+++ is >60%) | < 1000 | Cc1cccc(C)c1-c1cc2nc(n1)NS(=O)(=O)c1cccc(c1)C(=O)N(CCC(C)(C)C(C)(C)O)[C@H](CC(C)(C)C)CO2 [Compound 334] |  |
|  |  | +++ (+++ is >60%) | < 1000 | Cc1cccc(C)c1-c1cc2nc(n1)NS(=O)(=O)c1cc(n(C)n1)C(=O)N(Cc1ccccn1)[C@H](CC(C)(C)C)CO2 [Compound 930] |  |
| +++ (+++ is >600%) | < 1000 |  |  | Cc1cccc(C)c1-c1cc2nc(n1)NS(=O)(=O)c1cccc(c1)C(=O)N(Cc1ccc(C(F)(F)F)cn1)[C@H](CC(C)(C)C)CO2 [Compound 806] |  |
| +++ (+++ is >600%) | < 1000 |  |  | Cc1cccc(C)c1-c1cc2nc(n1)NS(=O)(=O)c1cccc(c1)C(=O)N(CC1CCC(C(C)(C)O)CC1)[C@H](CC(C)(C)C)CO2 (stereo partly drawn) [Compound 797] |  |
|  |  | +++ (+++ is >60%) | < 1000 | Cc1cccc(C)c1-c1cc2nc(n1)NS(=O)(=O)c1cccc(c1)C(=O)N(CC1CC(C)(O)C1)[C@H](CC(C)(C)C)CO2 (stereo partly drawn) [Compound 665] |  |
| +++ (+++ is >600%) | < 1000 |  |  | Cc1cccc(C)c1-c1cc2nc(n1)NS(=O)(=O)c1cccc(c1)C(=O)N(Cc1ncccc1N)[C@H](CC(C)(C)C)CO2 [Compound 390] |  |
|  |  | +++ (+++ is >60%) | < 1000 | Cc1cccc(C)c1-c1cc2nc(n1)NS(=O)(=O)c1cccc(c1)C(=O)N(Cc1ccc(C(C)(C)O)cc1)[C@H](CC(C)(C)O)CO2 [Compound 663] |  |
| +++ (+++ is >600%) | < 1000 |  |  | Cc1cccc(C)c1-c1cc2nc(n1)NS(=O)(=O)c1cccc(c1)C(=O)N(Cc1ccc(Oc3ncccn3)cc1)[C@H](CC(C)(C)C)CO2 [Compound 789] |  |
| +++ (+++ is >600%) | < 1000 |  |  | Cc1cccc(C)c1-c1cc2nc(n1)NS(=O)(=O)c1cccc(c1)C(=O)N(CCS(C)(=O)=O)[C@H](CC(C)C)CO2 [Compound 388] |  |
|  |  | ++ (++ is 30-60%) | < 1000 | Cc1cccc(C)c1-c1cc2nc(n1)NS(=O)(=O)c1cc(nn1C)C(=O)N(Cc1ccccc1)[C@H](CC(C)(C)C)CO2 [Compound 928] |  |
|  |  | +++ (+++ is >60%) | < 1000 | Cc1cccc(C)c1-c1cc2nc(n1)NS(=O)(=O)c1cccc(c1)C(=O)N(Cc1ccc(C(C)(C)O)cn1)[C@H](CC(C)(C)C)CO2 [Compound 1082] |  |
| +++ (+++ is >600%) | < 1000 |  |  | Cc1cccc(C)c1-c1cc2nc(n1)NS(=O)(=O)c1cccc(c1)C(=O)N(C[C@H]1CC[C@@H](C(C)(C)O)CC1)[C@H](CC(C)(C)C)CO2 [Compound 796] |  |
|  |  | +++ (+++ is >60%) | < 1000 | Cc1cccc(C)c1-c1cc2nc(n1)NS(=O)(=O)c1cccc(n1)C(=O)N(Cc1cccnn1)[C@H](CC(C)(C)C)CO2 [Compound 1090] |  |

| SMILES | Ent. B Max Activity (%) (Table 9) | EC50 (Table 9) [nM] | Ent. B Max Activity (Table 8) | EC50 [1] [nM] | further results |
| --- | --- | --- | --- | --- | --- |
| Cc1cccc(C)c1-c1cc2nc(n1)NS(=O)(=O)c1cccc(c1)C(=O)N(CC1CC(O)(Cc3ccccc3)C1)[C@H](CC(C)(C)C)CO2 (single isomer, unassigned) [Compound 67] | +++ (+++ is >600%) | < 1000 |  |  |  |
| Cc1cccc(C)c1-c1cc2nc(n1)NS(=O)(=O)c1cccc(c1)C(=O)N(CC1CC(O)(Cc3ccccc3)C1)[C@H](CC(C)(C)C)CO2 (single isomer, unassigned) [Compound 68] | +++ (+++ is >600%) | < 1000 |  |  |  |
